Source: patent US9029366B2, “Substituted bicyclic alkoxy pyrazole analogs as allosteric modulators of mGluR5 receptors” (Vanderbilt University, priority 2012, dated 2015)

Columns and labels:
human mGluR5 = human mGluR5 (Homo sapiens, UniProt P41594); assay: Cell-based functional Ca2+ mobilization assay (FDSS), potentiation of glutamate EC20 response, HEK293A cells transfected with human mGluR5a (H10H or H12H cell line); details: H10H cell line expressing recombinant human mGluR5, in presence of glutamate EC20, ** = compound is an antagonist; for EC50: read-out: pEC50 (converted); for Emax: HEK293-A; for Emax / Emax (%): % of maximal glutamate response
Procedure: Human embryonic kidney (HEK) cells transfected with rat mGluR5 were plated in clear bottom assay plates for assay in a Functional Drug Screening System (FDSS). In the alternative assay, HEK cells transfected with human mGluR5 were plated for assay in the FDSS. In some cases the HEK cells transfected with human mGluR5 are the H10H cell line. Alternatively, the HEK cells transfected with human mGluR5 are the H12H cell line. […] The cells were loaded with a Ca^2+-sensitive fluorescent dye (e.g., Fluo-4), and the plates were washed and placed in the FDSS instrument. After establishment of a fluorescence baseline for about three seconds, the compounds of the present invention were added to the cells, and the response in cells was measured. Five minutes later, an mGluR5 agonist (e.g., glutamate, 3,5-dihydroxyphenylglycine, or quisqualate) was added to the cells, and the response of the cells was measured.
The above described assay can be operated in two modes. In the first mode, a range of concentrations of the present compounds were added to cells, followed by a single fixed concentration of agonist. If a compound acted as a potentiator, an EC50 value for potentiation and a maximum extent of potentiation by the compound at this concentration of agonist was determined by non-linear curve fitting. In the second mode, several fixed concentrations of the present compounds were added to various wells on a plate, followed by a range of concentrations of agonist for each concentration of present compound; the EC50 values for the agonist at each concentration of compound were determined by non-linear curve fitting. A decrease in the EC50 value of the agonist with increasing concentrations of the present compounds (a leftward shift of the agonist concentration-response curve) is an indication of the degree of mGluR5 potentiation at a given concentration of the present compound. An increase in the EC50 value of the agonist with increasing concentrations of the present compounds (a rightward shift of the agonist concentration-response curve) is an indication of the degree of mGluR5 antagonism at a given concentration of the present compound. The second mode also indicates whether the present compounds also affect the maximum response to mGluR5 to agonists.
Human mGluR5a cDNA in pCMV6-XL6 mammalian expression plasmid was purchased from OriGene Technologies, Inc. (catalogue number SC326357) and subcloned into pcDNA3.1(−). Human embryonic kidney (HEK)293A cells were then transfected with human mGluR5a pcDNA3.1(−) using LipofectAmine2000 (Invitrogen) and monoclones were selected and tested for functional response using a Ca^2+ mobilization assay. Monoclones were named for the species (“H” for human) plus the location on the plate (e.g. “10H”).
HEK cells transfected with the human mGluR5a receptor (H10H or H12H cell line) were plated at 15,000 cells/well in clear-bottomed poly-D-lysine-coated assay plates (BD Falcon) in glutamate-glutamine-free growth medium and incubated overnight at 37° C. and 5% CO2. Cell-lines used were either the H10H or H12H cell-lines expressing the human mGluR5 receptor. The following day, the growth medium was removed and the cells were washed with assay buffer containing 1× Hank's balanced salt solution (Invitrogen, Carlsbad, Calif.), 20 mM HEPES, 2.5 mM probenecid, pH 7.4 and left with 20 μL of this reagent. Following this step, the cells were loaded with calcium indicator dye, fluo-4 AM, to a final concentration of 2 μM and incubated for 40-45 min at 37° C. The dye solution was removed and replaced with assay buffer. Cell plates were held for 10-15 min at room temperature and were then loaded into the Functional Drug Screening System 6000 (FDSS 6000, Hamamatsu, Japan).
After establishment of a fluorescence baseline for about 3 seconds, the compounds of the present invention were added to the cells, and the response in cells was measured.

Sequence of human mGluR5 (P41594 21-1180 isoform P41594-2 limits assumed): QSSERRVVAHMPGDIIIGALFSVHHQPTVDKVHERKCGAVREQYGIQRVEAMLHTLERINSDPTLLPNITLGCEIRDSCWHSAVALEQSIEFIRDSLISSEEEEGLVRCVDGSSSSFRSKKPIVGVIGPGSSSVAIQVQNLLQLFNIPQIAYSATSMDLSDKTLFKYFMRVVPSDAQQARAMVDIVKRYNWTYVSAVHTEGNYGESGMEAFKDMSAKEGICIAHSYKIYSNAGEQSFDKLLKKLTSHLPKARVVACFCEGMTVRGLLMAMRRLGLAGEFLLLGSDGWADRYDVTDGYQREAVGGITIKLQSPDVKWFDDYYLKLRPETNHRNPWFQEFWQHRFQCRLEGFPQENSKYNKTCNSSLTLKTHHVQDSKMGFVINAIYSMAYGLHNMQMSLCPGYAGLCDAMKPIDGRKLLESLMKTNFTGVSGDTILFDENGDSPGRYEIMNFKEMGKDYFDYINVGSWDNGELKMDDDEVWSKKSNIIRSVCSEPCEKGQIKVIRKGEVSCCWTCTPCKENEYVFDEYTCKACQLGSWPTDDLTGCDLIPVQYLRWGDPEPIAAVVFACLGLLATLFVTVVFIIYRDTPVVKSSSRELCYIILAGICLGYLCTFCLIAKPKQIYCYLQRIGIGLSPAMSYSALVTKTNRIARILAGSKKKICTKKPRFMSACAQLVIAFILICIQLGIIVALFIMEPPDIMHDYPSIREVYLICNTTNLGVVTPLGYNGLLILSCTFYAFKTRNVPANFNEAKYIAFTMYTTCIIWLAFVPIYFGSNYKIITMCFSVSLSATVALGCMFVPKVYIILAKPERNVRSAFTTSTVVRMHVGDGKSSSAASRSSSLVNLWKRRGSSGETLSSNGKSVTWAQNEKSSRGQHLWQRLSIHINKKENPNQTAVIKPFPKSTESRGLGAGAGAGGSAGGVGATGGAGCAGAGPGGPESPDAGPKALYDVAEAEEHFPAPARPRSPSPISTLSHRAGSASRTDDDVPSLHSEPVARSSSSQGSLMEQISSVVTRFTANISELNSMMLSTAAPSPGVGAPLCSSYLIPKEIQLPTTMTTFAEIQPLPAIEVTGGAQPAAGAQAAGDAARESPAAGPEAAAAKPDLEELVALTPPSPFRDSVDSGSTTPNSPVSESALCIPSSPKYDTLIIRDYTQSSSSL

Molecule: O=C(c1cccc(Cl)c1)N1CCn2nc(OCc3cccc(F)c3)cc2C1 [Example B98]
- EC50 (human mGluR5): 0.112 µM
- Emax (human mGluR5): 66%
- melting point: 117 °C

Molecule: N#Cc1cc(F)cc(C(=O)N2CCn3nc(OCc4ccccc4)cc3C2)c1 [Example B6]
- EC50 (human mGluR5): > 30.2 µM
- Emax (human mGluR5): 24%
- melting point: 117.6 °C

Molecule: O=C(c1ccccc1)N1CCn2nc(OCc3ccc(F)cc3)cc2C1 [Example B97]
- EC50 (human mGluR5): 0.331 µM
- Emax (human mGluR5): 48%
- melting point: 131 °C

Molecule: N#Cc1cccc(COc2cc3n(n2)CCN(C(=O)c2ccccc2)C3)c1 [Example B95]
- EC50 (human mGluR5): 0.0661 µM
- Emax (human mGluR5): 48.5%
- melting point: 150.4 °C

Molecule: COc1cccc(C(=O)N2CCn3nc(OCc4ccccc4)cc3C2)n1 [Example B82]
- EC50 (human mGluR5): > 30.2 µM
- Emax (human mGluR5): 9%
- melting point: 97.1 °C

Molecule: O=C(c1ncccc1Cl)N1CCn2nc(OCc3ccccc3)cc2C1 [Example B29]
- EC50 (human mGluR5): > 30.2 µM
- Emax (human mGluR5): 27%
- melting point: 135.1 °C

Molecule: O=C(c1cc(F)cc(F)c1)N1CCn2nc(OCc3ccccc3)cc2C1 [Example B104]
- EC50 (human mGluR5): 0.138 µM
- Emax (human mGluR5): 44.5%
- melting point: 165.2 °C

Molecule: O=C(c1ccccc1F)N1CCn2nc(OCc3ccccc3F)cc2C1 [Example B134]
- EC50 (human mGluR5): 0.141 µM
- Emax (human mGluR5): 71%
- melting point: 132.4 °C

Molecule: O=C(c1cc(F)cc(F)c1)N1CCn2nc(OCc3cccc(F)c3)cc2C1 [Example B94]
- EC50 (human mGluR5): 0.0617 µM
- Emax (human mGluR5): 25%
- melting point: 154.7 °C

Molecule: Cc1ccccc1COc1cc2n(n1)CCN(C(=O)c1ccc(F)cc1)C2 [Example B14]
- EC50 (human mGluR5): 2 µM
- Emax (human mGluR5): 51%
- melting point: 99.3 °C

Molecule: O=C(c1ccc(F)cc1)N1CCn2nc(OCc3cccc(F)c3)cc2C1 [Example B10]
- EC50 (human mGluR5): 0.0891 µM
- Emax (human mGluR5): 62%
- melting point: > 300 °C

Molecule: COc1cccc(COc2cc3n(n2)CCN(C(=O)c2ccc(F)cc2)C3)c1 [Example B16]
- EC50 (human mGluR5): 1.41 µM
- Emax (human mGluR5): 49%
- melting point: 120.8 °C

Molecule: O=C(c1ccncc1)N1CCn2nc(OCc3ccccc3)cc2C1 [Example B62]
- EC50 (human mGluR5): 1.86 µM
- Emax (human mGluR5): 20%

Molecule: C[C@H]1Cn2nc(OCc3ccccc3)cc2CN1C(=O)c1ccc(Cl)n1C [Example B91]
- EC50 (human mGluR5): 3.63 µM
- Emax (human mGluR5): 69%

Molecule: O=C(c1ncccn1)N1CCn2nc(OCc3ccccc3)cc2C1 [Example B51]
- EC50 (human mGluR5): > 30.2 µM
- Emax (human mGluR5): 26%

Molecule: O=C(c1cnc[nH]1)N1CCn2nc(OCc3ccccc3)cc2C1 [Example B58]
- EC50 (human mGluR5): > 30.2 µM
- Emax (human mGluR5): 22%

Molecule: O=C(c1c[nH]c2ccccc12)N1CCn2nc(OCc3ccccc3)cc2C1 [Example B59]
- EC50 (human mGluR5): 0.166 µM
- Emax (human mGluR5): 71%

Molecule: CO[C@](C(=O)N1CCn2nc(OCc3ccccc3)cc2C1)(c1ccccc1)C(F)(F)F [Example B87]
- EC50 (human mGluR5): > 30.2 µM
- Emax (human mGluR5): 15%

Molecule: CCC(C)C(=O)N1CCn2nc(OCc3ccccc3)cc2C1 (stereo not shown) [Example B75]
- EC50 (human mGluR5): > 30.2 µM
- Emax (human mGluR5): 27%

Molecule: O=C(c1cncc(F)c1)N1CCn2nc(OCc3ccccc3)cc2C1 [Example B63]
- EC50 (human mGluR5): 2 µM
- Emax (human mGluR5): 48%

Molecule: O=C(c1cc(Cl)cc(Cl)c1)N1CCn2nc(OCc3ccccc3)cc2C1 [Example B47]
- EC50 (human mGluR5): 0.11 µM
- Emax (human mGluR5): 25%

Molecule: O=C(c1n[nH]c2ccccc12)N1CCn2nc(OCc3ccccc3)cc2C1 [Example B53]
- EC50 (human mGluR5): 0.117 µM
- Emax (human mGluR5): 69%

Molecule: O=C(c1ccnc(F)c1)N1CCn2nc(OCc3ccccc3)cc2C1 [Example B138]
- EC50 (human mGluR5): 0.891 µM
- Emax (human mGluR5): 37%

Molecule: CN(C)c1cccc(C(=O)N2CCn3nc(OCc4ccccc4)cc3C2)n1 [Example B88]
- EC50 (human mGluR5): 0.617 µM
- Emax (human mGluR5): 40%

Molecule: Cc1ccc(C(=O)N2CCn3nc(OCc4ccccc4)cc3C2)o1 [Example B56]
- EC50 (human mGluR5): 0.562 µM
- Emax (human mGluR5): 49%

Molecule: O=C(COCc1ccccc1)N1CCn2nc(OCc3ccccc3)cc2C1 [Example B72]
- EC50 (human mGluR5): 3.8 µM
- Emax (human mGluR5): 34%

Molecule: O=C(c1cnccn1)N1CCn2nc(OCc3ccccc3)cc2C1 [Example B37]
- EC50 (human mGluR5): > 10 µM
- Emax (human mGluR5): 44%

Molecule: Cn1c(Cl)ccc1C(=O)N1CCn2nc(OCc3ccccc3)cc2C1 [Example B81]
- EC50 (human mGluR5): 0.0251 µM
- Emax (human mGluR5): 69%

Molecule: Cn1c(Cl)ccc1C(=O)N1CCn2nc(OCc3cccc(F)c3)cc2C1 [Example B80, (5-chloro-1-methyl-1H-pyrrol-2-yl)-[2-(3-fluoro-benzyloxy)-6,7-dihydro-4H-pyrazolo[1,5-a]pyrazin-5-yl]-methanone]
- EC50 (human mGluR5): 0.0229 µM
- Emax (human mGluR5): 65%

Molecule: CS(=O)(=O)c1cccc(COc2cc3n(n2)CCN(C(=O)c2ccc(F)cc2)C3)c1 [Example B122]
- EC50 (human mGluR5): > 30.2 µM
- Emax (human mGluR5): 28%

Molecule: O=C(c1cccc(Cl)c1)N1CCn2nc(OCc3ccccc3)cc2C1 [Example B43]
- EC50 (human mGluR5): 0.0708 µM
- Emax (human mGluR5): 51%

Molecule: 1-(2-(benzyloxy)-6,7-dihydropyrazolo[1,5-a]pyrazin-5(4H)-yl)-2-(tert-butylamino)ethanone [Example B24]
- Emax (%) (human mGluR5): 28%
- pEC50 (human mGluR5): <4.52

Molecule: O=C(c1ncc(F)cc1F)N1CCn2nc(OCc3ccccc3)cc2C1 [Example B65]
- EC50 (human mGluR5): > 10 µM
- Emax (human mGluR5): 56%

Molecule: O=C(c1ccccc1)N1CCn2nc(OCc3ccccc3)cc2C1 [Example B50]
- EC50 (human mGluR5): 0.141 µM
- Emax (human mGluR5): 55%

Molecule: O=C(c1ccccc1Cl)N1CCn2nc(OCc3ccccc3)cc2C1 [Example B44]
- EC50 (human mGluR5): 0.0955 µM
- Emax (human mGluR5): 33%

Molecule: O=C(c1cc[nH]n1)N1CCn2nc(OCc3ccccc3)cc2C1 [Example B52]
- EC50 (human mGluR5): 2 µM
- Emax (human mGluR5): 71%

Molecule: CCOc1ccccc1C(=O)N1CCn2nc(OCc3ccccc3)cc2C1 [Example B48]
- EC50 (human mGluR5): > 30.2 µM
- Emax (human mGluR5): 13%

Molecule: O=C(c1cccnc1)N1CCn2nc(OCc3ccccc3)cc2C1 [Example B64]
- EC50 (human mGluR5): > 10 µM
- Emax (human mGluR5): 38%

Molecule: O=C(c1ccccn1)N1CCn2nc(OCc3ccccc3)cc2C1 [Example B61]
- EC50 (human mGluR5): 4.27 µM
- Emax (human mGluR5): 46%

Molecule: CC(C)(C)CC(=O)N1CCn2nc(OCc3ccccc3)cc2C1 [Example B68]
- EC50 (human mGluR5): 0.355 µM
- Emax (human mGluR5): 69%

Molecule: CC(C)(C)NCC(=O)N1CCn2nc(OCc3ccccc3)cc2C1 [Example B25]
- EC50 (human mGluR5): > 30.2 µM
- Emax (human mGluR5): 20%

Molecule: O=C(CCC(F)(F)F)N1CCn2nc(OCc3ccccc3)cc2C1 [Example B70]
- EC50 (human mGluR5): > 30.2 µM
- Emax (human mGluR5): 25%

Molecule: O=C(c1ccccc1C(F)(F)F)N1CCn2nc(OCc3ccccc3)cc2C1 [Example B41]
- EC50 (human mGluR5): > 30.2 µM
- Emax (human mGluR5): 25%

Molecule: O=C(c1ccc(F)cc1)N1CCn2nc(OCc3cccc(C(F)F)c3)cc2C1 [Example B124]
- EC50 (human mGluR5): 0.676 µM
- Emax (human mGluR5): 54%

Molecule: N#Cc1cc(COc2cc3n(n2)CCN(C(=O)c2ccc(F)cc2)C3)ccn1 [Example B127]
- EC50 (human mGluR5): 0.562 µM
- Emax (human mGluR5): 36%

Molecule: O=C(c1ccc(F)cc1)N1CCn2nc(OCc3ccncc3Cl)cc2C1 [Example B136]
- EC50 (human mGluR5): ≥ 10 µM
- Emax (human mGluR5): 41%

Molecule: O=C(CC1CCCC1)N1CCn2nc(OCc3ccccc3)cc2C1 [Example B67]
- EC50 (human mGluR5): 0.479 µM
- Emax (human mGluR5): 52%

Molecule: O=C(c1ccc(F)c(C(F)(F)F)c1)N1CCn2nc(OCc3ccccc3)cc2C1 [Example B39]
- Emax (%) (human mGluR5): 51%

Molecule: Cc1ccoc1C(=O)N1CCn2nc(OCc3ccccc3)cc2C1 [Example B54]
- EC50 (human mGluR5): > 30.2 µM
- Emax (human mGluR5): 20%
